Reference: paper PMC5965259 (Journal of medicinal chemistry, 2018)

Tests used:
[1] = tested on: T. brucei AdoMetDC/prozyme; experiment: biochemical; conditions: pH 7.2; human vs T. brucei AdoMetDC
[2] = tested on: bloodstream form T. brucei Lister 427; experiment: ATP–bioluminescence-based bloodstream form T. brucei cell viability assay; conditions: Trypanosoma brucei, 48 h, read-out: Tb427 EC50
human AdoMetDC = molecular target: T1, human AdoMetDC (Homo sapiens, UniProt P17707); experiment: RapidFire–MS-based AdoMetDC enzyme activity assay; assay type: biochemical; conditions: read-out: Hs IC50; pH 7.2; mean, triplicate, 95% CI in parentheses
T1 sequence (P17707 1-334): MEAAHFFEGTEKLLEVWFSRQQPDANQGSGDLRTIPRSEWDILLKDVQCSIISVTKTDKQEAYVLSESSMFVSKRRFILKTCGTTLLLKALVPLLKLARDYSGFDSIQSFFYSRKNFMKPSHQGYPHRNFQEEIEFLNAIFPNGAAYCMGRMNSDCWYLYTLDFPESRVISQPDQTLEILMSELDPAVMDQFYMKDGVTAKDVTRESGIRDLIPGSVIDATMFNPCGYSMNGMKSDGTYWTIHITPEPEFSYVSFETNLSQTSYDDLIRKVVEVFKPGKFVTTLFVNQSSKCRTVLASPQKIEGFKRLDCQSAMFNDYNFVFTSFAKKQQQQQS

**Q.** With `Cc1cc(Nc2cc(Cl)c(F)c(Cl)c2)nc(N)n1` [Compound 62, N^4-(3,5-Dichloro-4-fluorophenyl)-6-methylpyrimidine-2,4-diamine] as the compound, how does the “selectivity ratio (HsIC50/TbIC50)” value [1] read?
**A.** exceeded 100

**Q.** What about the EC50 [2] of the same compound?
**A.** 4.8 µM

**Q.** What about the IC50 (human AdoMetDC) of the same compound?
**A.** 160 µM
